The target in one experiment is FKBP12 (Homo sapiens, UniProt P62942). Nature of the experiment: Ki test procedure: inhibition of peptidyl-prolyl isomerase (rotamase) activity, chymotrypsin-coupled assay. The class given is biochemical. As to conditions: apparent Ki. The text has this: The inhibition of the prolyl peptidyl cis-trans isomerase activity of FKBP may be measured as an indicator of this affinity.
The compounds of the invention are shown to inhibit peptidyl-prolyl isomerase (rotamase) activity and can be evaluated by known methods described in the literature (Harding, et al., Nature, 1989, 341:758-760; Holt et al. J. Am. Chem. Soc., 115: 9923-9938). The cis-trans isomerization of an alanine-proline bond in a model substrate, N-succinyl-Ala-Ala-Pro-Phe-p-nitroanilide, is monitored spectrophotometrically in a chymotrypsin-coupled assay, which releases para-nitroanilide from the trans form of the substrate. The inhibition of this reaction caused by the addition of different concentrations of inhibitor is determined, and the data is analyzed as a change in first-order rate constant as a function of inhibitor concentration to yield the apparent Ki values.
In a plastic cuvette are added […] of ice cold assay buffer (25 mM HEPES, pH 7.8, 100 mM NaCl), 10 mL of FKBP (2.5 mM in 10 mM Tris-Cl pH 7.5, 100 mM NaCl, 1 mM dithiothreitol), 25 mL of chymotrypsin (50 mg/ml in 1 mM HCl) and […] of test compound at various concentrations in dimethyl sulfoxide. The reaction is initiated by the addition of 5 mL of substrate (succinyl-Ala-Phe-Pro-Phe-para-nitroanilide, 5 mg/mL in 2.35 mM LiCl in trifluoroethanol).
The absorbance at 390 nm versus time is monitored for 90 seconds using a spectrophotometer and the rate constants are determined from the absorbance versus time data files.
The data for these experiments for representative compounds are presented in Tables II(a) and II(b) under the column “Ki”.

The subject of experiment [1] is chick dorsal root ganglia. Briefly: Chick dorsal root ganglion cultures and neurite outgrowth. The conditions noted are these: Gallus gallus, 48 h; read-out: ED50 (the source's name). The class given is cell-based. As to the method: Dorsal root ganglia were dissected from chick embryos of ten day gestation. Whole ganglion explants were cultured on thin layer Matrigel-coated 12 well plates with Liebovitz L15 plus high glucose media supplemented with 2 mM glutamine and 10% fetal calf serum, and also containing 10 μM cytosine β-D arabinofuranoside (Ara C) at 37° C. in an environment containing 5% CO2. Twenty-four hours later, the DRGs were treated with various immunophilin ligands. Forty-eight hours after drug treatment, the ganglia were visualized under phase contrast or Hoffman Modulation contrast with a Zeiss Axiovert inverted microscope. Photomicrographs of the explants were made, and neurite outgrowth was quantitated. Neurites longer than the DRG diameter were counted as positive, with total number of neurites quantitated per each experimental condition. Three to four DRGs are cultured per well, and each treatment was performed in duplicate.
The data for these experiments for representative compounds are presented in Table II(c) under the column “ED50”.

Experiment [2] has as its system TH-positive dopaminergic neurons in the striatum. Nature of the experiment: MPTP model of Parkinson's Disease. The conditions noted are these: CD1 mice, MPTP 30 mg/kg i.p. 5 days, test compound 4 mg/kg s.c. 10 days, striatum at 18 days. The class given is in vivo. As to the method:
MPTP lesioning of dopaminergic neurons in mice is used as an animal model of Parkinson's Disease. Four week old male CD1 white mice are dosed i.p. with 30 mg/kg of MPTP for 5 days. Test compounds (4 mg/kg), or vehicle, are administered s.c. along with the MPTP for 5 days, as well as for an additional 5 days following cessation of MPTP treatment. At 18 days following MPTP treatment, the animals are sacrificed and the striata dissected and perfusion-fixed.
Immunostaining is performed on saggital and coronal brain sections using anti-tyrosine hydroxylase […] to quantitate survival and recovery of dopaminergic neurons. In animals treated with MPTP and vehicle, a substantial loss of functional dopaminergic terminals is observed as compared to non-lesioned animals. Lesioned animals receiving test compounds show a significant recovery of TH-stained dopaminergic neurons. This model presents quantitation for the recovery of TH-positive dopaminergic neurons in the striatum of animals receiving the compounds of the present invention. Data for representative control and lesioned animals not receiving the test drugs is also presented against the data from the animals receiving the compounds of the present invention in Table III.

Structures are written as SMILES. Like-named read-outs stand apart in the source and are kept apart here.

Chain of FKBP12 (P62942 whole entry, species assumed): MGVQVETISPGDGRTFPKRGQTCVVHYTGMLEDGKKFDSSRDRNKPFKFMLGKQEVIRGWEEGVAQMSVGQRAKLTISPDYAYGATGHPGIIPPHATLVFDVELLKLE

For `COc1ccc(CCCSC(=O)[C@@H]2CCCCN2S(=O)(=O)c2ccc(C)cc2)cc1` (racemic) [Compound 26, 3-(4-Methoxyphenyl)propyl 1-[(4-methylphenyl)sulfonyl]-2-piperidinecarbothioate], the Ki at FKBP12 (numerical, read-out: Ki) is 659 nM; at FKBP12 (ranked potency, read-out: Kl) it was > 500 nM. As for `COc1ccc(CCCSC(=O)C2CCCCN2S(=O)(=O)Cc2ccccc2)cc1` (racemic) [Compound 27, 3-(4-Methoxyphenyl)propyl 1-(benzylsulfonyl)-2-piperidinecarbothioate], at FKBP12 (numerical, read-out: Ki), the Ki was determined as 82 nM.

Take `COc1ccc(CCCSC(=O)C2CCCCN2S(=O)(=O)c2ccccc2)cc1` (racemic) [Compound 28, 3-(4-Methoxyphenyl)propyl 1-(phenylsulfonyl)-2-piperidinecarbothioate]: the Ki at FKBP12 (numerical, read-out: Ki) is 196 nM; on FKBP12 (ranked potency, read-out: Kl), 51 to 200 nM. The matching figures for `Cc1ccc(S(=O)(=O)N2CCCCC2C(=O)SCCCc2ccc(C(F)(F)F)cc2)cc1` (racemic) [Compound 29, 3-[4-(Trifluoromethyl)phenyl]propyl 1-[(4-methylphenyl)sulfonyl]-2-piperidinecarbothioate]: 69 nM and 51 to 200 nM. With `O=C(SCCc1ccccc1)C1CCCN1S(=O)(=O)c1ccccc1` (stereo not shown) [Compound 1], the EC50 in experiment [1] was < 1 nM.

As for `O=C(SCCc1ccccc1)C1CCCN1S(=O)(=O)Cc1ccccc1` (stereo not shown) [Compound 2], the EC50 in experiment [1] lay within 1 to 50 nM. Consider `Cc1ccc(S(=O)(=O)N2CCCC2C(=O)SCCc2ccccc2)cc1` (stereo not shown) [Compound 3], for which, in experiment [1], the EC50 fell in the range of 1 to 50 nM. Regarding `COc1ccc(CCCSC(=O)[C@@H]2CCCN2S(=O)(=O)c2ccccc2)cc1` [Compound 4, 3-(4-Methoxyphenyl)propyl (2S)-1-(phenylsulfonyl)-2-pyrrolidinecarbothioate], the EC50 in experiment [1] was 51 to 200 nM. Moreover, the Ki on FKBP12 (numerical, read-out: Ki) is 204 nM; on FKBP12 (ranked potency, read-out: Kl), 201 to 500 nM. In addition, the “% Recovery Tyrosine Hydroxylase” value in experiment [2] came out at 42%. For the compound `COc1ccc(CCCSC(=O)[C@@H]2CCCN2S(=O)(=O)Cc2ccccc2)cc1` [Compound 5, 3-(4-Methoxyphenyl)propyl (2S)-1-(benzylsulfonyl)-2-pyrrolidinecarbothioate], in experiment [1], the EC50 lay in the range of 1 to 50 nM. Further, the Ki at FKBP12 (numerical, read-out: Ki) is 22 nM; on FKBP12 (ranked potency, read-out: Kl) it was 1 to 50 nM. On to `COc1ccc(CCCSC(=O)[C@@H]2CCCN2S(=O)(=O)c2ccc(C)cc2)cc1` [Compound 6, 3-(4-Methoxyphenyl)propyl (2S)-1-[(4-methylphenyl)sulfonyl]-2-pyrrolidinecarbothioate], for which the EC50 in experiment [1] was 51 to 200 nM. Besides, the Ki at FKBP12 (numerical, read-out: Ki) was 145 nM; on FKBP12 (ranked potency, read-out: Kl), 51 to 200 nM. The “% Recovery Tyrosine Hydroxylase” value in experiment [2] turned out to be 37%. On to `O=C(SCCC(c1ccccc1)c1ccccc1)C1CCCN1S(=O)(=O)c1ccccc1` (stereo not shown) [Compound 7], for which, in experiment [1], the EC50 lay in the range of 1 to 50 nM. On the same count and under the same terms, next, `O=C(SCCC(c1ccccc1)c1ccccc1)C1CCCN1S(=O)(=O)Cc1ccccc1` (stereo not shown) [Compound 8]: < 1 nM. Same read-out and setting: next, `O=C(SCCCCc1ccccc1)C1CCCCN1S(=O)(=O)c1ccccc1` (stereo not shown) [Compound 10]: 1 to 50 nM; `O=C(SCCCCc1ccccc1)C1CCCCN1S(=O)(=O)Cc1ccccc1` (stereo not shown) [Compound 11]: 1 to 50 nM. As for `Cc1ccc(S(=O)(=O)N2CCCCC2C(=O)SCCCCc2ccccc2)cc1` (stereo not shown) [Compound 12], the EC50 in experiment [1] lay within 1 to 50 nM. The same measure, in the same setting: next, `COc1cc(S(=O)(=O)N2CCCCC2C(=O)SCCCCc2ccccc2)cc(OC)c1OC` (stereo not shown) [Compound 13]: < 1 nM.

On to `O=C(SCCCCc1ccccc1)C1CCCCN1S(=O)(=O)C1CCCCC1` (stereo not shown) [Compound 14], for which the EC50 in experiment [1] was in the range of 1 to 50 nM. On the same count and under the same terms, next, `O=C(SC(CCCc1ccccc1)CCCc1ccccc1)C1CCCCN1S(=O)(=O)c1ccccc1` (stereo not shown) [Compound 15]: < 1 nM; `O=C(SC(CCCc1ccccc1)CCCc1ccccc1)C1CCCCN1S(=O)(=O)Cc1ccccc1` (stereo not shown) [Compound 16]: 51 to 200 nM. For `CCc1ccc(S(=O)(=O)N2CCC[C@H]2C(=O)SCCc2ccccc2)cc1` [Compound 21, Phenethyl (2S)-1-[(4-ethylphenyl)sulfonyl]-2-pyrrolidinecarbothioate], the Ki on FKBP12 (numerical, read-out: Ki) was 730 nM; at FKBP12 (ranked potency, read-out: Kl), > 500 nM. In the case of `O=C(SCCCc1ccccc1)[C@@H]1CCCN1S(=O)(=O)Cc1ccccc1` [Compound 23, 3-Phenylpropyl (2S)-1-(benzylsulfonyl)-2-pyrrolidinecarbothioate], the Ki on FKBP12 (ranked potency, read-out: Kl) lay in the range of 51 to 200 nM. The “% Recovery Tyrosine Hydroxylase” value in experiment [2] amounted to 80%. `O=C(SCCCc1cccc2ccccc12)[C@@H]1CCCN1S(=O)(=O)Cc1ccccc1` [Compound 24, 3-(1-Naphthyl)propyl (2S)-1-(benzylsulfonyl)-2-pyrrolidinecarbothioate]: the Ki is 671 nM at FKBP12 (numerical, read-out: Ki) and > 500 nM at FKBP12 (ranked potency, read-out: Kl). Also, the “% Recovery Tyrosine Hydroxylase” value in experiment [2] was 40%.

The record behind these values is patent US20020049193A1, “N-linked sulfonamides of heterocyclic thioesters” (GPI NIL HOLDINGS, INC., priority 1996, published 2002).
